Test results from US6593087B2, “Methods for detecting and reversing resistance to macrocyclic lactone compounds” (priority 1997, dated 2003).

Tests used:
[1] = test system: H. contortus susceptible strain (PF14); test: Dose titration to establish LD50 against susceptible H. contortus in the jird; assay type: in vivo, Haemonchus contortus; details: jirds, oral, treated day 10 after inoculation, probit analysis
Description: (§1) Jirds, which are fed on a standard commercial ration to which 0.02% hydrocortisone has been added 5 days prior to infection, are inoculated with 1000 exsheathed L3 H. contortus. On day 10 after inoculation, the jirds are treated with either water or various doses of moxidectin or ivermectin orally. Each treatment group contains 6 jirds. Probit analyses are used to estimate LD50 levels for each anthelmintic against each strain.

[2] = test system: H. contortus moxidectin-resistant strain (MOF14); test: Dose titration to establish LD50 against moxidectin resistant H. contortus in the jird; assay type: in vivo, Haemonchus contortus; details: jirds, oral, treated day 10 after inoculation, probit analysis
Description: as §1

[3] = test system: H. contortus ivermectin resistant strain (MFR); details: MFR selected over seventeen generations of ivermectin selection; cited from earlier work
[4] = test system: mice with deletion of mdr1a; details: mice with deletion of mdr1a versus normal mice; cited from earlier work
[5] = test system: H. contortus ivermectin resistant strain (ACR); details: ACR after twelve generations of ivermectin selection
[6] = test system: H. contortus moxidectin-resistant strain (MOF14); test: Effect of verapamil on efficacy of moxidectin and ivermectin against moxidectin-resistant H. contortus in jirds (Example 8); assay type: in vivo, Haemonchus contortus; set-up: key to SIGNIFICANCE AT P <0.05: A: Different letters indicate the mean worm counts are statistically different; B: Different letters indicate the mean worm counts are statistically different; C: Different letters indicate the mean worm counts are statistically different; details: for SIGNIFICANCE AT P <0.05: MOF14 in jirds, mean worm counts, IVM (±VRP) not compared with MOX (±VRP)
[7] = test system: H. contortus moxidectin-resistant strain (MOF14); test: Efficacy of verapamil with or without ivermectin against moxidectin resistant H. contortus in jirds (Example 7); assay type: in vivo, Haemonchus contortus
Description: as §1
(§2) Verapamil is given concomitantly with ivermectin by the oral route.

[8] = test system: H. contortus susceptible strain (PF14); test: Efficacy of verapamil with or without ivermectin against susceptible H. contortus in jirds (Example 7); assay type: in vivo, Haemonchus contortus
Description: as §1, §2

[9] = verapamil 20 mg/kg, resistant worms, jirds (Example 8)

Molecule | estimated LD50 [1] | estimated LD50 [2] | resistance at the ED95 compared with MFS [3] | sensitivity to ivermectin relative to normal mice [4] | resistance at the ED95 compared with ACS [5] | SIGNIFICANCE AT P <0.05 [6] | significance of worm counts ([7]; MOX-resistant strain MOF14 in jirds, VRP 20 mg/kg, IVM 0.046 mg/kg, oral) | effect of verapamil alone on worm counts ([7]; moxidectin resistant strain, any of the dose rates used (20 to 80 mg/kg), jirds) | effect of verapamil on the efficacy of ivermectin ([7]; verapamil 20 mg/kg, moxidectin resistant worms, jirds (Example 7)) | effect of verapamil on the efficacy of moxidectin [6, 9] | increase in efficacy when verapamil is coadministered with ivermectin [6, 9] | significance of worm counts ([8]; susceptible strain PF14 in jirds, VRP 20 mg/kg, IVM 0.024 mg/kg, oral) | effect of verapamil alone on worm counts ([8]; susceptible strain, any of the dose rates used (20 to 80 mg/kg), jirds)
22,23-dihydroavermectin B1 [ivermectin] | 0.024 mg/kg | 0.046 mg/kg | 10 × | 50-100 times | 6.3 × | B |  |  |  |  |  |  | 
CO/N=C1\C[C@]2(C[C@@H]3C[C@@H](C/C=C(\C)C[C@@H](C)/C=C/C=C4\CO[C@@H]5[C@H](O)C(C)=C[C@@H](C(=O)O3)[C@]45O)O2)O[C@H](/C(C)=C/C(C)C)[C@H]1C [moxidectin, 23-(O-methyloxime)-LL-F28249α] | 0.010 mg/kg | 0.017 mg/kg |  |  |  | B |  |  |  |  |  |  | 
COc1ccc(CCN(C)CCCC(C#N)(c2ccc(OC)c(OC)c2)C(C)C)cc1OC (centres unmarked) [verapamil] |  |  |  |  |  | A | n.s. | no significant effect on worm counts | significantly enhances the efficacy of ivermectin | significantly increases the efficacy of moxidectin | not significant | n.s. | no significant effect on worm counts
